Test results published in patent publication US9062043B2, “Fused tricyclic compounds as serine-threonine protein kinase and PARP modulators” (SENHWA BIOSCIENCES, INC., priority 2006, dated 2015).
pIC50: −log10 of the molar value.

Columns and labels:
[1] = tested on: PC-3 human prostatic cancer cells; experiment: Cell proliferation assay, Alamar Blue, PC-3; type: cell-based; settings: Table 16, read-out: IC50 PC3
Method: (§1) A representative cell-proliferation assay protocol using Alamar Blue dye (stored at 4° C., use 20 ul per well) is described hereafter.
(§2) c. Plate 4,000-5,000 cells per well in 100 μl of medium and seed into a 96-well plate according to the following plate layout. Add cell culture medium only to wells B10 to B12. Wells B1 to B9 have cells but no compound added.
(§3) d. Add 100 μl of 2× drug dilution to each well in a concentration shown in the plate layout above. At the same time, add 100 μl of media into the control wells (wells B10 to B12). Total volume is 200 μl/well.
(§4) e. Incubate four (4) days at 37° C., 5% CO2 in a humidified incubator.
(§5) f. Add 20 μl Alamar Blue reagent to each well.
(§6) g. Incubate for four (4) hours at 37° C., 5% CO2 in a humidified incubator.
(§7) h. Record fluorescence at an excitation wavelength of 544 nm and emission wavelength of 590 nm using a microplate reader.
(§8) In the assays, cells are cultured with a test compound for approximately four days, the dye then is added to the cells and fluorescence of […] dye is detected after approximately four hours. Different types of cells can be utilized in the assays (e.g., HCT-116 human colorectal carcinoma cells, PC-3 human prostatic cancer cells and MiaPaca human pancreatic carcinoma cells). Anti-proliferative effects of representative compounds are provided hereafter.

HT29 = experiment: Cell proliferation assay, Alamar Blue, HT29; type: cell-based; settings: Homo sapiens, HT-29; Table 16
Method: as §2, §3, §4, §5, §6, §7, §8

A549 = experiment: Cell proliferation assay, Alamar Blue, A549; type: cell-based; settings: Homo sapiens, Table 16
Method: as §2, §3, §4, §5, §6, §7, §8

[2] = tested on: MiaPaca human pancreatic carcinoma cells; experiment: Cell proliferation assay, Alamar Blue, MiaPaca; type: cell-based; settings: MIA PaCa-2, Table 16
Method: as §1, §2, §3, §4, §5, §6, §7, §8

H1299 = experiment: Cell proliferation assay, Alamar Blue, H1299; type: cell-based; settings: Homo sapiens, NCI-H1299; Table 16
Method: as §2, §3, §4, §5, §6, §7, §8

[3] = tested on: HCT-116 human colorectal carcinoma cells; experiment: Cell proliferation assay, Alamar Blue, HCT-116; type: cell-based;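 note: cells exposed to compound for about 4 days, then Alamar Blue added and fluorescence read after about 4 h, medium-only wells as control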
Hs578T = experiment: Cell proliferation assay, Alamar Blue, Hs578T; type: cell-based; settings: Homo sapiens, Hs-578T; Table 16
Jurkat = experiment: Cell proliferation assay, Alamar Blue, Jurkat; type: cell-based; settings: Homo sapiens, Table 16;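 note: cells exposed to compound for about 4 days at 37 °C, then Alamar Blue added and fluorescence read after about 4 h, controls given medium without drug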
BxPC3 = experiment: Cell proliferation assay, Alamar Blue, BxPC3; type: cell-based; settings: Homo sapiens, BXPC-3; Table 16
Method: as §2, §3, §4, §5, §6, §7, §8

MiaPaca xenografts = experiment: Tumor suppression in MiaPaca xenograft mice; type: in vivo; settings: MiaPaca xenograft, oral 100 mg/kg QDx8 then 200 mg/kg QDx5, relative to untreated control
caspase-3 = experiment: Caspase-3 staining in tumors as biomarker; type: in vivo, mice; settings: 60 mg/kg IV
Method: Caspase staining also was assessed as a biomarker for compound A1 treatment of tumors.

MCF-7 xenografts = experiment: Tumor suppression in MCF-7 xenograft animals; type: in vivo, mice; settings: oral 100 mg/kg
Method: (§9) Animals were handled under laminar-flow hoods.
(§10) Gemar™ administered at a dose of 80 mg/kg IP Q3D was used as a positive control.

[4] = Pharmacokinetics in ICR mice after IV and PO dose; type: in vivo
PC-3 xenografts = experiment: Tumor suppression in PC-3 xenograft animals; type: in vivo, mice; settings: oral 150 mg/kg
Method: as §9, §10

MDAMB231 = experiment: Cell proliferation assay, Alamar Blue, MDAMB231; type: cell-based; settings: Homo sapiens, MDA-MB-231; MDAMB231 cells, anti-proliferative
Method: as §1, §2, §3, §4, §5, §6, §7, §8

SK-OV-3 = experiment: Cell proliferation assay, Alamar Blue, SK-OV-3; type: cell-based; settings: Homo sapiens; SK-OV-3 cells, anti-proliferative
Method: as §1, §2, §3, §4, §5, §6, §7, §8

Raji = experiment: Cell proliferation assay, Alamar Blue, Raji; type: cell-based; settings: Homo sapiens; Raji cells, anti-proliferative
Method: as §1, §2, §3, §4, §5, §6, §7, §8

A375 = experiment: Cell proliferation assay, Alamar Blue, A375; type: cell-based; settings: Homo sapiens, A-375; A375 cells, anti-proliferative
Method: as §1, §2, §3, §4, §5, §6, §7, §8

LNCaP = experiment: Cell proliferation assay, Alamar Blue, LNCaP; type: cell-based; settings: Homo sapiens; LNCaP cells, anti-proliferative
Method: as §1, §2, §3, §4, §5, §6, §7, §8

COLO 205 = experiment: Cell proliferation assay, Alamar Blue, COLO 205; type: cell-based; settings: Homo sapiens; COLO 205 cells, anti-proliferative
Method: as §1, §2, §3, §4, §5, §6, §7, §8

HL-60 = experiment: Cell proliferation assay, Alamar Blue, HL-60; type: cell-based; settings: Homo sapiens; HL-60 cells, anti-proliferative
Method: as §1, §2, §3, §4, §5, §6, §7, §8

H460 = experiment: Cell proliferation assay, Alamar Blue, H460; type: cell-based; settings: Homo sapiens, NCI-H460; H460 cells, anti-proliferative
Method: as §1, §2, §3, §4, §5, §6, §7, §8

PanC1 = experiment: Cell proliferation assay, Alamar Blue, PanC1; type: cell-based; settings: Homo sapiens, PANC-1; PanC1 cells, anti-proliferative; read-out: IC50 (uM) PanC1
Method: as §1, §2, §3, §4, §5, §6, §7, §8

MCF-7 = experiment: Cell proliferation assay, Alamar Blue, MCF-7; type: cell-based; settings: Homo sapiens, MCF7; MCF-7 cells, anti-proliferative
Method: as §1, §2, §3, §4, §5, §6, §7, §8

[5] = HCT-116, Table 16, second HCT-116 column

Row | SMILES | pIC50 [1] | pIC50 (HT29) | pIC50 (A549) | pIC50 [2] | pIC50 (H1299) | pIC50 [3, 5] | pIC50 (Jurkat) | pIC50 (Hs578T) | also measured
1 | O=C(O)c1ccc2c(c1)nc(Nc1cc(Cl)ccc1F)c1ccsc12 | < 4.30 | < 4.30 | 4.51 | < 5.00 | 4.76 | < 5.00 |  |  | 
2 | NS(=O)(=O)c1cccc(Nc2nc3cc(C(=O)O)ccc3c3sccc23)c1 | 4.35 | 5.34 | 5.12 | < 5.00 | 5.00 | < 5.00 |  | 4.96 | 
3 | O=C(O)c1ccc2c(c1)nc(Nc1cccc(F)c1)c1ncsc12 | < 4.30 | < 4.30 | < 4.30 | < 5.00 | 4.66 | 4.82 | 4.40 | < 4.30 | 
4 | O=C(O)c1ccc2c(c1)nc(Nc1cccc(Cl)c1)c1ccncc12 [compound A1] |  |  |  |  |  |  |  |  | Tumor growth inhibition (MiaPaca xenografts): significantly inhibited tumor growth; Caspase-3 cell staining levels vs untreated control cells (caspase-3): four-fold greater; Tumor growth inhibition (MCF-7 xenografts): significantly inhibited tumor growth; CLs ([4]; IV 5 mg/kg): 1.5 L/kg/h; Cp0-exp ([4]; IV 5 mg/kg): 13201 ng/mL; Kel ([4]; IV 5 mg/kg): 0.1586 h⁻¹; F(0-8 h) ([4]; PO 25 mg/kg): 10.9%; F(0-inf h) ([4]; PO 25 mg/kg): 18.7%; Kel ([4]; PO 25 mg/kg): 0.1076 h⁻¹; AUC(0-inf) ([4]; mouse, plasma, IV 5 mg/kg): 3360 ng·h/mL; AUC(0-t) ([4]; mouse, plasma, IV 5 mg/kg): 3340 ng·h/mL; Vd ([4]; mouse, plasma, IV 5 mg/kg): 9.4 L/kg; AUC(0-inf) ([4]; mouse, plasma, PO 25 mg/kg): 3150 ng·h/mL; AUC(0-t) ([4]; mouse, plasma, PO 25 mg/kg): 2920 ng·h/mL; Cmax ([4]; mouse, plasma, PO 25 mg/kg): 343 ng/mL; Tmax ([4]; mouse, plasma, PO 25 mg/kg): 15 min; Tumor growth inhibition (PC-3 xenografts): significantly inhibited tumor growth
5 | O=C(O)c1ccc2c(c1)nc(Nc1cc(Cl)cc(Cl)c1)c1ccsc12 [drawing 991] |  |  |  |  |  |  |  |  | IC50 (MDAMB231): 3.89 µM; IC50 (SK-OV-3): 11.7 µM; IC50 (Raji): 17.7 µM; IC50 (A375): 19.9 µM; IC50 (LNCaP): 6.23 µM; IC50 (COLO 205): 1.01 µM; IC50 (HL-60): 1.94 µM; IC50 (H460): 12.3 µM; IC50 (PanC1): 20.3 µM; IC50 (MCF-7): 13.7 µM
6 | O=C(O)c1ccc2c(c1)nc(Nc1ccccc1)c1ncsc12 | < 4.30 | < 4.30 | < 4.30 | < 5.00 | 4.41 | < 5.00 | 5.13 | < 4.30 | 
7 | O=C(O)c1ccc2c(c1)nc(Nc1ccc(F)c(Cl)c1)c1ncsc12 | < 4.30 | < 4.30 | < 4.30 | < 5.00 | 4.38 | 4.82 | 4.82 | 4.55 | 

The next lines start with results.

Row | pIC50 [1] | pIC50 (HT29) | pIC50 (A549) | pIC50 [2] | pIC50 (H1299) | pIC50 [3, 5] | pIC50 (Jurkat) | SMILES | pIC50 (Hs578T) | also measured
8 | 5.14 |  | 4.84 |  | 4.75 | 5.12 | 5.20 | c1ccc(Nc2nc3cc(-c4nnc[nH]4)ccc3c3sccc23)cc1 | 5.26 | pIC50 (BxPC3): 5.71; pIC50 ([3]; HCT-116, Table 16, first HCT-116 column): 5.30
9 | 5.27 | 5.49 | 5.35 | 5.50 | 4.90 | < 5.00 | 5.16 | O=C(NC1CC1)c1cccc(Nc2nc3cc(-c4nnn[nH]4)ccc3c3sccc23)c1 | 5.11 | 
10 | 4.78 | 5.27 | 4.93 | 5.01 | 4.84 |  |  | O=C(O)c1ccc2c(c1)nc(Nc1cccc(Cl)c1)c1ccsc12 | 5.01 | 
